Measurements: patent US20230416248A1, “COMPOUNDS AND USES THEREOF” (Foghorn Therapeutics Inc., priority 2020, published 2023)
pIC50: −log10 of the molar value.

How the values were obtained:
[1] = target: T1, BRM (Homo sapiens, UniProt P51531); test: ATPase catalytic activity of BRM, ADP-Glo in vitro biochemical assay; settings: for pIC50: ADP-Glo ATPase assay, 30 nM BRM, 400 μM ATP; for Ratio*: ratio BRG1 IC50 / BRM IC50
T1 construct: made in house; host or cells: High Five insect cells
Outline: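 ADP-Glo luminescence, after depletion of leftover ATP and conversion of ADP, reported the activity. The 1 h room-temperature reaction held 400 μM ATP, 20 nM salmon sperm DNA and 30 nM BRM in 20 mM Tris pH 8, 20 mM MgCl2, 50 mM NaCl, 0.1% Tween-20, 1 mM DTT.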

[2] = target: T2, BRG-1 (Homo sapiens, UniProt P51532); test: ATPase catalytic activity of BRG-1, ADP-Glo in vitro biochemical assay; settings: ADP-Glo ATPase assay, 30 nM BRG-1, 400 μM ATP; read-out: BRG1 IC50
T2 construct: made in house; host or cells: High Five insect cells
Outline: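 In this in vitro format, BRG-1 hydrolysis product ADP is detected via a two-step ADP-Glo workup (ATP removal, then ADP-to-ATP conversion with luciferase detection) followed by a luminescence read.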

[3] = tested on: Uveal melanoma cell lines, 92-1 or MP41; test: 3-day growth inhibition compared with clinical PKC and MEK inhibitors, Compound A (Example 8); type: cell-based; settings: FIG. 2A and 2B
Protocol: Procedure: Uveal melanoma cell lines, 92-1 or MP41, were plated in 96 well plates in the presence of growth media (see Table 5). […] Cells were incubated at 37 degrees Celsius for 3 days. After three days of treatment, cell growth was measured with Cell-titer glow (Promega), and luminescence was read on an Envision plate reader (Perkin Elmer).

[4] = tested on: parental MP41 cells; test: 7-day growth inhibition assay, parental cells (Example 14); type: cell-based; settings: FIG. 7B, 7-day assay
Protocol: (§1) Procedure: MP41 uveal melanoma cells were made resistant to the PKC inhibitor (LXS196; MedChemExpress), by long-term culture in growth media (see Table 6) containing increasing concentrations of the compound, up to 1 micromolar. After 3 months, sensitivity of the parental MP41 cells and the PKC inhibitor (PKCi)-resistant cells to the PKC inhibitor (LXS196) or the BRG1/BRM ATPase inhibitor (Compound B) was tested in a 7-day growth inhibition assay as described above in Example 9.

[5] = tested on: Uveal melanoma cell lines, 92-1 or MP41; test: 3-day growth inhibition compared with clinical PKC and MEK inhibitors, Compound B (Example 13); type: cell-based; settings: FIG. 6A and 6B
Protocol: Procedure: Uveal melanoma cell lines, 92-1 or MP41, were plated in 96 well plates in the presence of growth media (see Table 6). BAF ATPase inhibitor (Compound B), PKC inhibitor (LXS196; MedChemExpress), and MEK Inhibitor (Selumetinib; Selleck Chemicals) were dissolved in DMSO and added to the cells in a concentration gradient from 0 to 10 micromolar at the time of plating. Cells were incubated at 37° C. for 3 days. After three days of treatment, cell growth was measured with Cell-titer glow (Promega), and luminescence was read on an Envision plate reader (Perkin Elmer).

[6] = tested on: Uveal melanoma cell lines (92-1, MP41, MP38, MP46) and Non-small cell lung cancer cells (NCIH1299); test: 3-day cell growth, Cell-titer glow (Example 12); type: cell-based; settings: FIG. 5, 3 days, 0 to 10 micromolar
Protocol: Procedure: Uveal melanoma cell lines (92-1, MP41, MP38, MP46) and Non-small cell lung cancer cells (NCIH1299) were plated into 96 well plates with growth media (see Table 6). BRG1/BRM ATPase inhibitor, compound 67, was dissolved in DMSO and added to the cells in a concentration gradient from 0 to 10 micromolar at the time of plating. Cells were incubated at 37° C. for 3 days. After three days of treatment, cell growth was measured with Cell-titer glow (Promega), and luminescence was read on an Envision plate reader (Perkin Elmer).

[7] = tested on: PKC inhibitor (PKCi)-resistant MP41 uveal melanoma cells; test: 7-day growth inhibition assay, PKC inhibitor-resistant cells (Example 14); type: cell-based
Protocol: as §1

[8] = Body weight and tolerability in mice engrafted with 92-1 tumors (Example 16); type: in vivo; settings: all treatments, once daily oral gavage, 3 weeks, FIG. 8C
Protocol: Procedure: Nude mice (Envigo) were engrafted subcutaneously in the axillary region with 5×10^6 92-1 uveal melanoma cells in 50% Matrigel. Tumors were grown to a mean of ˜200 mm^3, at which point mice were grouped and dosing was initiated. Mice were dosed once daily by oral gavage with vehicle (20% 2-Hydroxypropyl-[…]) or increasing doses of Compound C. Tumor volumes and body weights were measured over the course of 3 weeks, and doses were adjusted by body weight to achieve the proper dose in terms of mg/kg. At this time, animals were sacrificed, and tumors were dissected and imaged.

T1 sequence (P51531 whole entry): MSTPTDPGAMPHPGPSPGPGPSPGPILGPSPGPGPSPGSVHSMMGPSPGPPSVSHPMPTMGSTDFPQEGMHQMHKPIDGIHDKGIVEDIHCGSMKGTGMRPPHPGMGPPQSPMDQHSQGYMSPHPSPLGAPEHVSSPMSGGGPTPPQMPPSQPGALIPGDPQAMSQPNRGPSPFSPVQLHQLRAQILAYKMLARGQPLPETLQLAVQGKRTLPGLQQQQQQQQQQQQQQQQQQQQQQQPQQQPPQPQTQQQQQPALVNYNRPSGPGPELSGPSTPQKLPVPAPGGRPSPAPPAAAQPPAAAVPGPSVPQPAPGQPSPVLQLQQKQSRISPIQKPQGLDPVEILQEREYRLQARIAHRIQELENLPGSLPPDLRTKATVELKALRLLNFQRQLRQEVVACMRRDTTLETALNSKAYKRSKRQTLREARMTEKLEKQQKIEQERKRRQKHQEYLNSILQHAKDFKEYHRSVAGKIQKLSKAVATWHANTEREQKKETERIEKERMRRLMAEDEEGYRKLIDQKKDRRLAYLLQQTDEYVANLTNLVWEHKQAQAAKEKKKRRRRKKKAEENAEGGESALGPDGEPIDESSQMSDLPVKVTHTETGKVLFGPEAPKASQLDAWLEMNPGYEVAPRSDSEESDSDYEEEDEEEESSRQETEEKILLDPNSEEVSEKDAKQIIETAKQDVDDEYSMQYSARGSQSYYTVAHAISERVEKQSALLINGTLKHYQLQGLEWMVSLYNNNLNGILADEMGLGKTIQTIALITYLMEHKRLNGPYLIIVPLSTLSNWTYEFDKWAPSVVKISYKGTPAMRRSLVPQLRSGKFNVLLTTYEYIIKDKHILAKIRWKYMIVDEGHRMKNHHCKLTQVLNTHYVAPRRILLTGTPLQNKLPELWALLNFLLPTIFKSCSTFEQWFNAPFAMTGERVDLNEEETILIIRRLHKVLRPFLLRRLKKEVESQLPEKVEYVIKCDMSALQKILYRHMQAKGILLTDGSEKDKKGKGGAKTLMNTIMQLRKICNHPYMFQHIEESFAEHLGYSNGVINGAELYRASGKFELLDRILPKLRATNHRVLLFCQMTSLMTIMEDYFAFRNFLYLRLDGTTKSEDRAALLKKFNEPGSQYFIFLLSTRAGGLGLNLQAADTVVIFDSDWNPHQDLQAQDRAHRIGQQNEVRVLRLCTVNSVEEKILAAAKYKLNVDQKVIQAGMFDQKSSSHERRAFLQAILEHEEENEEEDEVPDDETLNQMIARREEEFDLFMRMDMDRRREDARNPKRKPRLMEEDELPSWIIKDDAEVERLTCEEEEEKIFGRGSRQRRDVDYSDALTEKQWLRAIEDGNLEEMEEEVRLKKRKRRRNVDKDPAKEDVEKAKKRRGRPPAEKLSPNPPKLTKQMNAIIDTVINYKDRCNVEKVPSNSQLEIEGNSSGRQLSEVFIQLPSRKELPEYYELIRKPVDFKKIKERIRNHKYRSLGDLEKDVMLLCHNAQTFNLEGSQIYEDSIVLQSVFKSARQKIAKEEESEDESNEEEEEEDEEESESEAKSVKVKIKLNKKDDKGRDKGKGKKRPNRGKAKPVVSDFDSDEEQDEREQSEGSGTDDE
T2 sequence (P51532 whole entry): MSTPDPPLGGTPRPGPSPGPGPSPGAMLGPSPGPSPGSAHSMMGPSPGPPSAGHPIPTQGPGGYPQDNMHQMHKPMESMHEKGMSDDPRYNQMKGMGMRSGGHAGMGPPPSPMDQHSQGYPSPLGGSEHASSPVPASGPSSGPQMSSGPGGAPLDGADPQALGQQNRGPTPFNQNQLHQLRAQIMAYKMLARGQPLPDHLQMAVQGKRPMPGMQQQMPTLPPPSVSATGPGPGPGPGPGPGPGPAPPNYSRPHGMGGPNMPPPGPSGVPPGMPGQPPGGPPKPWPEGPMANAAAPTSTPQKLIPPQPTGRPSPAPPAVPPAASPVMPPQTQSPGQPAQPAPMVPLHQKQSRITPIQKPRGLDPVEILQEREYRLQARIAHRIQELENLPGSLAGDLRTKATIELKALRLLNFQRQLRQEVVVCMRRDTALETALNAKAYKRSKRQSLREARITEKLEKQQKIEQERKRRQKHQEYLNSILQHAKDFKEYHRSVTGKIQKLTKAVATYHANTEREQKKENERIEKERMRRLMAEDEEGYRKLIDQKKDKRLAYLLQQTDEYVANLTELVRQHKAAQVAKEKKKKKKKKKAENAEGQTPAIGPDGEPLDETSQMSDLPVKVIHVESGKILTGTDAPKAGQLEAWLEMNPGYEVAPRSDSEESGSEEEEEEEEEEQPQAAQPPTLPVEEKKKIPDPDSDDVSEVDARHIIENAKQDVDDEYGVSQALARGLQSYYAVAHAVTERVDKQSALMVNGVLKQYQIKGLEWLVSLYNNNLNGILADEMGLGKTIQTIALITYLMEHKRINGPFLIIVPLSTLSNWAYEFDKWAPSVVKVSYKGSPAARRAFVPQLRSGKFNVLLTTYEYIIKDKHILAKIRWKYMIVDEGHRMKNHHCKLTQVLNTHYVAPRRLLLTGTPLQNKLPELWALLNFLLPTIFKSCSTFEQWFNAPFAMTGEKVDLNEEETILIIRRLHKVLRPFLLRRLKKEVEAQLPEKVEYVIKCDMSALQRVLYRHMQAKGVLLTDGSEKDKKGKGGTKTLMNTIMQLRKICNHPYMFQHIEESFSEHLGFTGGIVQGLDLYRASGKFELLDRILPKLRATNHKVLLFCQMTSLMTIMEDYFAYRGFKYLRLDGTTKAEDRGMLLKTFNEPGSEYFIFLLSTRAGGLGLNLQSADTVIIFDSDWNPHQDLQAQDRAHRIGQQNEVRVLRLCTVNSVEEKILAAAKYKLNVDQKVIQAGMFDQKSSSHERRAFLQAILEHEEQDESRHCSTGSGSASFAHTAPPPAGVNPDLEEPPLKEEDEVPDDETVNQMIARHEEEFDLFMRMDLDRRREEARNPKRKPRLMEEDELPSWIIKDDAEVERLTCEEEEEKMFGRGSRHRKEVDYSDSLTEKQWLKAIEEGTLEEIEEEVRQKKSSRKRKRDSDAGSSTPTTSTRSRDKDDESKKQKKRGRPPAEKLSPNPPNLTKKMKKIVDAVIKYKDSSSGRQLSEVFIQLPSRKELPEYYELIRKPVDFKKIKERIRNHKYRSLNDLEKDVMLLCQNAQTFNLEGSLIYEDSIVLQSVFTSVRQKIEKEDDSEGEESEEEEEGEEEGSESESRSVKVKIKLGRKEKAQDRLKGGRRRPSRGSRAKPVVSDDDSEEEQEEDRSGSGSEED

Row | SMILES | pIC50 [1] | Ratio* [1] | pIC50 [2] | further results
1 | O=C(NCc1cc2nc(N3CCOc4ccc(C5CC(F)(F)C5)nc43)ccc2cn1)c1ccc2c(c1)S(=O)(=O)CCOC2 [Compound 828] | 7.35 | 52.48 | 5.63 | –
2 | C[C@H]1C[C@H]1c1ccc2c(n1)N(c1ccc3cnc(CNC(=O)c4ccc5c(c4)S(=O)(=O)CCOC5)cc3n1)CCO2 [Compound 831] | 7.45 | 33.09 | 5.93 | –
3 | C[C@@H]1C[C@@H]1c1ccc2c(n1)N(c1ccc3cnc(CNC(=O)c4ccc5c(c4)S(=O)(=O)CCOC5)cc3n1)CCO2 [Compound 832] | 7.81 | 58.26 | 6.04 | –
4 | O=C(NCc1cc2nc(N3CCOc4cc(N5CCC5)ncc43)ccc2cn1)c1ccc2c(c1)S(=O)(=O)CCOC2 [Compound 834] | 7.69 | 14.40 | 6.54 | –
5 | COCc1cc2c(nc1C(F)F)N(c1ccc3cnc(CNC(=O)c4ccc5c(c4)S(=O)(=O)CCOC5)cc3n1)CCC2 [Compound 835] | 7.77 | 9.15 | 6.81 | –
6 | CN(C)c1nccc2c1CCCN2c1ccc2cnc(CNC(=O)c3ccc4c(c3)S(=O)(=O)CCOC4)cc2n1 [Compound 836] | 6.98 | 6.21 | 6.19 | –
7 | CN(C)c1ccnc2c1CCCN2c1ccc2cnc(CNC(=O)c3ccc4c(c3)S(=O)(=O)CCOC4)cc2n1 [Compound 837] | 7.48 | 4.95 | 6.79 | –
8 | O=C(NCc1cc2nc(N3CCOc4ccc(C(F)CF)nc43)ccc2cn1)c1ccc2c(c1)S(=O)(=O)CCOC2 (stereo not shown) [Compound 838] | 7.56 | 38.76 | 5.97 | –
9 | Cc1nc(C)c2c(n1)N(c1ccc3cnc(CNC(=O)c4ccc5c(c4)S(=O)(=O)CCOC5)cc3n1)CCC2 [Compound 841] | 6.54 | 7.16 | 5.68 | –
10 | O=C(NCc1cc2nc(N3CC(F)Cc4cccnc43)ccc2cn1)c1ccc2c(c1)S(=O)(=O)CCOC2 (stereo not shown) [Compound 842] | 7.52 | 10.98 | 6.48 | –
11 | O=C(NCc1cc2nc(N3CCOc4nc(C5CC5)ccc43)ccc2cn1)c1ccc2c(c1)S(=O)(=O)CCOC2 [Compound 843] | 7.25 | 8.61 | 6.32 | –
12 | O=C(NCc1cc2nc(N3CCOc4cc(C5CC5)ccc43)cnc2cn1)c1ccc2c(c1)S(=O)(=O)CCOC2 [Compound 844] | 7.72 | 19.99 | 6.42 | –
13 | CN(C)c1ccc2c(n1)OCCN2c1ccc2cnc(CNC(=O)c3ccc4c(c3)S(=O)(=O)CCOC4)cc2n1 [Compound 845] | 7.67 | 8.66 | 6.74 | –
14 | O=C(NCc1cc2nc(N3CCOc4nc(C(F)F)ccc43)ccc2cn1)c1ccc2c(c1)S(=O)(=O)CCOC2 [Compound 846] | 6.39 | 11.26 | 5.34 | –
15 | O=C(NCc1cc2nc(N3CCOc4cc(C5(C(F)F)CC5)cnc43)ccc2cn1)c1ccc2c(c1)S(=O)(=O)CCOC2 [Compound 847] | 7.71 | 19.41 | 6.42 | –
16 | Cc1ncnc2c1CCCN2c1ccc2cnc(CNC(=O)c3ccc4c(c3)S(=O)(=O)CCOC4)cc2n1 [Compound 848] | 6.67 | 10.10 | 5.66 | –
17 | COc1ccc(-c2ccc3cnc(CNC(=O)c4ccc5c(c4)S(=O)(=O)CCOC5)cc3n2)nc1 [Compound 850] | 6.18 | 6.87 | 5.34 | –
18 | O=C(NCc1cc2nc(-c3ccc(OC4CC4)cn3)ccc2cn1)c1ccc2c(c1)S(=O)(=O)CCOC2 [Compound 851] | 6.15 | 3.64 | 5.59 | –
19 | O=C(NCc1cc2nc(N3CCCc4cnc(OC5CC5)cc43)ccc2cn1)c1ccc2c(c1)S(=O)(=O)CCOC2 [Compound 852] | 8.01 | 17.95 | 6.75 | –
20 | O=C(NCc1cc2nc(N3CCOc4cnc(C5CC5)c(F)c43)ccc2cn1)c1ccc2c(c1)S(=O)(=O)CCOC2 [Compound 853] | 7.90 | 16.24 | 6.69 | –
21 | O=C(NCc1cc2nc(N3CCOc4ccc([C@@H](F)CF)nc43)ccc2cn1)c1ccc2c(c1)S(=O)(=O)CCOC2 [Compound 854] | 6.98 | 19.74 | 5.68 | –
22 | O=C(NCc1cc2nc(N3CC4CC4c4cccnc43)ccc2cn1)c1ccc2c(c1)S(=O)(=O)CCOC2 (stereo not shown) [Compound 855] | 6.40 | 9.60 | 5.42 | –
23 | O=C(NCc1cc2nc(N3CCOc4ccc([C@H](F)CF)nc43)ccc2cn1)c1ccc2c(c1)S(=O)(=O)CCOC2 [Compound 856] | 7.92 | 55.91 | 6.18 | –
24 | CSCC[C@H](NC(=O)c1ccc(N)cc1)C(=O)Nc1nc(-c2cccc(-c3ccncc3)c2)cs1 [Compound A] | – | – | – | onset of inhibition versus the clinical PKC and MEK inhibitors [3]: faster onset of inhibition; growth inhibition of uveal melanoma cells versus the clinical PKC and MEK inhibitors ([3]; 3 days, 0 to 10 micromolar): comparable growth inhibition
25 | CSCC[C@H](NC(=O)c1ccn(S(C)(=O)=O)c1)C(=O)Nc1nc(-c2cccc(-c3ccncc3)c2)cs1 [Compound B, (S)-1-(methylsulfonyl)-N-(4-(methylthio)-1-oxo-1-((4-(3-(pyridin-4-yl)phenyl)thiazol-2-yl)amino)butan-2-yl)-1H-pyrrole-3-carboxamide] | – | – | – | growth inhibition of parental cell line [4]: strong growth inhibition; onset of growth inhibition versus the clinical PKC and MEK inhibitors [5]: faster onset of growth inhibition; growth inhibition of uveal melanoma cells versus the clinical PKC and MEK inhibitors ([5]; 3 days, 0 to 10 micromolar): more potent effects on growth inhibition; growth inhibition in the uveal melanoma cell lines [6]: potent growth inhibition; sensitivity of PKCi-resistant cells versus the parental MP41 cells ([7]; FIG. 7B): more sensitive; growth inhibition of PKCi-resistant cell line ([7]; FIG. 7B, 7-day assay): strong growth inhibition
26 | C[C@@H]1CN(c2cccc(-c3csc(NC(=O)CNC(=O)c4ccn(C(C)(C)C)c4)n3)n2)C[C@H](C)O1 [Compound C, 1-(tert-butyl)-N-(2-((4-(6-(cis-2,6-dimethylmorpholino)pyridin-2-yl)thiazol-2-yl)amino)-2-oxoethyl)-1H-pyrrole-3-carboxamide] | – | – | – | tolerability, body weight [8]: well tolerated with no body weight loss observed
27 | CC1(N)CCN(c2cccnc2NC(=O)c2nc(-c3ncccc3C(F)(F)F)cnc2N)CC1 [LXS196, reference compound] | – | – | – | tolerance of PKCi-resistant cells versus the parental MP41 cell line ([7]; FIG. 7A): could tolerate growth at higher concentrations
